Patent US8895504B2, “Amylin derivatives” (priority 2008, dated 2014)
pEC50: −log10 of the molar value. *1 amine or outer side, *2 acyl side, *3 side chain or, on linkers, in order; H or OH if unused. Where a SMILES comes first, the peptide text is derived from it. Bridges are numbered along the chain shown (N, C = ends). Side-chain parts run from the residue outwards. The star is where a group is joined. C20 diacid = O=C(O)CCCCCCCCCCCCCCCCCCC(=O)*; C18 diacid = O=C(O)CCCCCCCCCCCCCCCCC(=O)*; γGlu = O=C(O)[C@H](CCC(=O)[*:2])N[*:1]; AEEA = NCCOCCOCC(=O)O; GABA = NCCCC(=O)O

target: T1, Amylin 3(a) receptor (human calcitonin receptor (CTa) and RAMP-3) (Homo sapiens, UniProt O60896+P30988); assay: Luciferase assay (III), BHK Amylin 3(a)//CRE-luc cells; type: cell-based; details: BHK cells with Amylin 3(a) receptor and CRE luciferase reporter, 4 hours incubation; read-out: Potency Luciferase
T1 construct: expressed in transfected cells; host or cells: BHK570 cells, stably transfected with a CRE-luciferase reporter
In short: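 BHK570 cells stably expressing CTa, RAMP-3 and a CRE-luciferase reporter, seeded at about 20,000 cells/well and grown overnight. Cells were exposed to standard or sample for 4 h at 37° C in phenol red-free DMEM with 10% FBS and 10 mM Hepes, pH 7,4. Luminescence was read after 30 min LucLite at room temperature.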

T1 sequence (O60896 24-148): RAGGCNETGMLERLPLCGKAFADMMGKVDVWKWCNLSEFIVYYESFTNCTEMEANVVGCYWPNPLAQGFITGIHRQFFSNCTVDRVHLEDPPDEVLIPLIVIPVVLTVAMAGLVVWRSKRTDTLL
T1 sequence (P30988 25-474): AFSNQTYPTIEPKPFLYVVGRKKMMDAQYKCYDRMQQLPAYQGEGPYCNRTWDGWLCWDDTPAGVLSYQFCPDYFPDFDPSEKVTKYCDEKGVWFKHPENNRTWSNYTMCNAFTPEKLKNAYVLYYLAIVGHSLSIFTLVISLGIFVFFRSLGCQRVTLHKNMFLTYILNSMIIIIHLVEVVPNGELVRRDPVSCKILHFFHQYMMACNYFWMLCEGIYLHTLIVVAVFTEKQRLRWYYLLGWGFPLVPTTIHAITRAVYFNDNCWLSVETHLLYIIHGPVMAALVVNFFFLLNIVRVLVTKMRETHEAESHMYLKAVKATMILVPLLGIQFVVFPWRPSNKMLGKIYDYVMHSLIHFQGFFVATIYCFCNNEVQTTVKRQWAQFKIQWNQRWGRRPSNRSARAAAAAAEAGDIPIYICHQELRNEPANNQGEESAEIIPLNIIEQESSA

Structure (SMILES) | pEC50
CC[C@H](C)[C@H](NC(=O)[C@@H]1CCCN1C(=O)CNC(=O)[C@H](Cc1ccccc1)NC(=O)[C@H](CC(N)=O)NC(=O)[C@H](CC(N)=O)NC(=O)[C@H](CO)NC(=O)[C@H](CO)NC(=O)[C@H](Cc1c[nH]cn1)NC(=O)CNC(=O)[C@H](CC(C)C)NC(=O)[C@H](Cc1ccccc1)NC(=O)[C@H](CC(N)=O)NC(=O)[C@H](C)NC(=O)[C@H](CC(C)C)NC(=O)[C@H](CCCNC(=N)N)NC(=O)[C@H](CCC(N)=O)NC(=O)[C@@H](NC(=O)[C@H](C)NC(=O)[C@@H]1CSSC[C@H](NC(=O)[C@H](CCCCN)NC(=O)[C@H](CCCNC(=N)N)NC(=O)CC[C@H](NC(=O)CCCCCCCCCCCCCCCCCCC(=O)O)C(=O)O)C(=O)N[C@@H](CC(N)=O)C(=O)N[C@@H]([C@@H](C)O)C(=O)N[C@@H](C)C(=O)N[C@@H]([C@@H](C)O)C(=O)N1)[C@@H](C)O)C(=O)N[C@@H](CC(C)C)C(=O)N1CCC[C@H]1C(=O)N1CCC[C@H]1C(=O)N[C@H](C(=O)N[C@@H](CC(N)=O)C(=O)N[C@H](C(=O)NCC(=O)N[C@@H](CO)C(=O)N[C@@H](CC(N)=O)C(=O)N[C@H](C(=O)N[C@@H](Cc1ccc(O)cc1)C(N)=O)[C@@H](C)O)C(C)C)[C@@H](C)O [Example 18, N-alpha-[(S)-4-Carboxy-4-(19-carboxynonadecanoylamino)butyryl]-Arg-[Gly17]-pramlintide] ({C20 diacid-γGlu}-RKCNTATCATQRLANFLGHSSNNFGPILPPTNVGSNTY-NH2; disulfide 3-8) | 10.00
CC[C@H](C)[C@H](NC(=O)[C@@H]1CCCN1C(=O)CNC(=O)[C@H](Cc1ccccc1)NC(=O)[C@H](CC(N)=O)NC(=O)[C@H](CC(=O)O)NC(=O)[C@H](CO)NC(=O)[C@H](CO)NC(=O)[C@H](Cc1c[nH]cn1)NC(=O)[C@H](Cc1c[nH]cn1)NC(=O)[C@H](CC(C)C)NC(=O)[C@H](Cc1ccccc1)NC(=O)[C@H](CC(N)=O)NC(=O)[C@H](C)NC(=O)[C@H](CC(C)C)NC(=O)[C@H](CCCNC(=N)N)NC(=O)[C@H](CCC(N)=O)NC(=O)[C@@H](NC(=O)[C@H](C)NC(=O)[C@@H]1CSSC[C@H](NC(=O)[C@@H](N)CCCCN)C(=O)N[C@@H](CCCCNC(=O)[C@H](CCC(=O)O)NC(=O)[C@H](CCC(=O)O)NC(=O)[C@H](CCC(=O)O)NC(=O)[C@H](CCC(=O)O)NC(=O)CCCCCCCCCCCCCCCCCCC(=O)O)C(=O)N[C@@H]([C@@H](C)O)C(=O)N[C@@H](C)C(=O)N[C@@H]([C@@H](C)O)C(=O)N1)[C@@H](C)O)C(=O)N[C@@H](CC(C)C)C(=O)N1CCC[C@H]1C(=O)N1CCC[C@H]1C(=O)N[C@H](C(=O)N[C@@H](CC(N)=O)C(=O)N[C@H](C(=O)NCC(=O)N[C@@H](CO)C(=O)N[C@@H](CC(N)=O)C(=O)N[C@H](C(=O)N[C@@H](Cc1ccc(O)cc1)C(N)=O)[C@@H](C)O)C(C)C)[C@@H](C)O [Example 4, N-epsilon3-(19-carboxynonadecanoyl-Glu-Glu-Glu-Glu)-[Lys3,His17,Asp21]-pramlintide] (H-KCK([Glu-Glu-Glu-Glu-C20 diacid])TATCATQRLANFLHHSSDNFGPILPPTNVGSNTY-NH2; disulfide 2-7) | 8.70
CC[C@H](C)[C@H](NC(=O)[C@@H]1CCCN1C(=O)CNC(=O)[C@H](Cc1ccccc1)NC(=O)[C@H](CC(N)=O)NC(=O)[C@H](CC(N)=O)NC(=O)[C@H](CO)NC(=O)[C@H](CO)NC(=O)[C@H](Cc1c[nH]cn1)NC(=O)[C@H](Cc1c[nH]cn1)NC(=O)[C@H](CC(C)C)NC(=O)[C@H](Cc1ccccc1)NC(=O)[C@H](CC(N)=O)NC(=O)[C@H](C)NC(=O)[C@H](CC(C)C)NC(=O)[C@H](CCCNC(=N)N)NC(=O)[C@H](CCC(N)=O)NC(=O)[C@@H](NC(=O)[C@H](C)NC(=O)[C@@H]1CSSC[C@H](NC(=O)[C@H](Cc2c[nH]cn2)NC(=O)CC[C@H](NC(=O)CCCCCCCCCCCCCCCCC(=O)O)C(=O)O)C(=O)N[C@@H](CC(N)=O)C(=O)N[C@@H]([C@@H](C)O)C(=O)N[C@@H](C)C(=O)N[C@@H]([C@@H](C)O)C(=O)N1)[C@@H](C)O)C(=O)N[C@@H](CC(C)C)C(=O)N1CCC[C@H]1C(=O)N1CCC[C@H]1C(=O)N[C@H](C(=O)N[C@@H](CC(N)=O)C(=O)N[C@H](C(=O)NCC(=O)N[C@@H](CO)C(=O)N[C@@H](CC(N)=O)C(=O)N[C@H](C(=O)N[C@@H](Cc1ccc(O)cc1)C(N)=O)[C@@H](C)O)C(C)C)[C@@H](C)O [Example 32, N-alpha-[(S)-4-Carboxy-4-(17-carboxyheptadecanoylamino)butyryl]-[His1,His17]-pramlintide] ({C18 diacid-γGlu}-HCNTATCATQRLANFLHHSSNNFGPILPPTNVGSNTY-NH2; disulfide 2-7) | 10.10

The next lines start with the values.

pEC50 | Structure (SMILES)
9.52 | CC[C@H](C)[C@H](NC(=O)[C@@H]1CCCN1C(=O)CNC(=O)[C@H](Cc1ccccc1)NC(=O)[C@H](CC(N)=O)NC(=O)[C@H](CC(N)=O)NC(=O)[C@H](CO)NC(=O)[C@H](CO)NC(=O)[C@H](Cc1c[nH]cn1)NC(=O)[C@H](CCCNC(=N)N)NC(=O)[C@H](CC(C)C)NC(=O)[C@H](Cc1ccccc1)NC(=O)[C@H](CC(N)=O)NC(=O)[C@H](C)NC(=O)[C@H](CC(C)C)NC(=O)[C@H](CCCNC(=N)N)NC(=O)[C@H](CCC(N)=O)NC(=O)[C@@H](NC(=O)[C@H](C)NC(=O)[C@@H]1CSSC[C@H](NC(=O)[C@H](CCCNC(=N)N)NC(=O)[C@H](Cc2c[nH]cn2)NC(=O)[C@H](Cc2c[nH]cn2)NC(=O)COCCOCCNC(=O)CC[C@H](NC(=O)CCCCCCCCCCCCCCCCCCC(=O)O)C(=O)O)C(=O)N[C@@H](CC(N)=O)C(=O)N[C@@H]([C@@H](C)O)C(=O)N[C@@H](C)C(=O)N[C@@H]([C@@H](C)O)C(=O)N1)[C@@H](C)O)C(=O)N[C@@H](CC(C)C)C(=O)N1CCC[C@H]1C(=O)N1CCC[C@H]1C(=O)N[C@H](C(=O)N[C@@H](CC(N)=O)C(=O)N[C@H](C(=O)NCC(=O)N[C@@H](CO)C(=O)N[C@@H](CC(N)=O)C(=O)N[C@H](C(=O)N[C@@H](Cc1ccc(O)cc1)C(N)=O)[C@@H](C)O)C(C)C)[C@@H](C)O [Example 57, N-alpha-[2-(2-{2-[4-(S)-Carboxy-4-(19-carboxynonadecanoylamino)butyrylamino]ethoxy}ethoxy)acetyl]-His-His-[Arg1,Arg17]-pramlintide] ({C20 diacid-γGlu-AEEA}-HHRCNTATCATQRLANFLRHSSNNFGPILPPTNVGSNTY-NH2; disulfide 4-9)
10.52 | CC[C@H](C)[C@H](NC(=O)[C@@H]1CCCN1C(=O)CNC(=O)[C@H](Cc1ccccc1)NC(=O)[C@H](CC(N)=O)NC(=O)[C@H](CC(N)=O)NC(=O)[C@H](CO)NC(=O)[C@H](CO)NC(=O)[C@H](Cc1c[nH]cn1)NC(=O)[C@H](CCCNC(=N)N)NC(=O)[C@H](CC(C)C)NC(=O)[C@H](Cc1ccccc1)NC(=O)[C@H](CC(N)=O)NC(=O)[C@H](C)NC(=O)[C@H](CC(C)C)NC(=O)[C@H](CCCNC(=N)N)NC(=O)[C@H](CCC(N)=O)NC(=O)[C@@H](NC(=O)[C@H](C)NC(=O)[C@@H]1CSSC[C@H](NC(=O)[C@H](CCCCN)NC(=O)[C@H](CCCNC(=N)N)NC(=O)CCCNC(=O)CCCCCCCCCCCCCCCCCCC(=O)O)C(=O)N[C@@H](CC(N)=O)C(=O)N[C@@H]([C@@H](C)O)C(=O)N[C@@H](C)C(=O)N[C@@H]([C@@H](C)O)C(=O)N1)[C@@H](C)O)C(=O)N[C@@H](CC(C)C)C(=O)N1CCC[C@H]1C(=O)N1CCC[C@H]1C(=O)N[C@H](C(=O)N[C@@H](CC(N)=O)C(=O)N[C@H](C(=O)NCC(=O)N[C@@H](CO)C(=O)N[C@@H](CC(N)=O)C(=O)N[C@H](C(=O)N[C@@H](Cc1ccc(O)cc1)C(N)=O)[C@@H](C)O)C(C)C)[C@@H](C)O [Example 25, N-alpha-[4-(19-Carboxynonadecanoylamino)butyryl]-Arg-[Arg17]-pramlintide] ({C20 diacid-GABA}-RKCNTATCATQRLANFLRHSSNNFGPILPPTNVGSNTY-NH2; disulfide 3-8)
10.15 | CC[C@H](C)[C@H](NC(=O)[C@@H]1CCCN1C(=O)CNC(=O)[C@H](Cc1ccccc1)NC(=O)[C@H](CC(N)=O)NC(=O)[C@H](CC(N)=O)NC(=O)[C@H](CO)NC(=O)[C@H](CO)NC(=O)[C@H](Cc1c[nH]cn1)NC(=O)[C@H](Cc1c[nH]cn1)NC(=O)[C@H](CC(C)C)NC(=O)[C@H](Cc1ccccc1)NC(=O)[C@H](CC(N)=O)NC(=O)[C@H](C)NC(=O)[C@H](CC(C)C)NC(=O)[C@H](CCCNC(=N)N)NC(=O)[C@H](CCC(N)=O)NC(=O)[C@@H](NC(=O)[C@H](C)NC(=O)[C@@H]1CSSC[C@H](NC(=O)[C@H](CCCNC(=N)N)NC(=O)[C@H](CCCCN)NC(=O)[C@H](CCC(=O)O)NC(=O)CCCCCCCCCCCCCCCCCCC(=O)O)C(=O)N[C@@H](CC(N)=O)C(=O)N[C@@H]([C@@H](C)O)C(=O)N[C@@H](C)C(=O)N[C@@H]([C@@H](C)O)C(=O)N1)[C@@H](C)O)C(=O)N[C@@H](CC(C)C)C(=O)N1CCC[C@H]1C(=O)N1CCC[C@H]1C(=O)N[C@H](C(=O)N[C@@H](CC(N)=O)C(=O)N[C@H](C(=O)NCC(=O)N[C@@H](CO)C(=O)N[C@@H](CC(N)=O)C(=O)N[C@H](C(=O)N[C@@H](Cc1ccc(O)cc1)C(N)=O)[C@@H](C)O)C(C)C)[C@@H](C)O [Example 8, N-alpha-[19-carboxynonadecanoyl]-Glu-Lys-[Arg1,His17]-pramlintide] ({C20 diacid}-EKRCNTATCATQRLANFLHHSSNNFGPILPPTNVGSNTY-NH2; disulfide 4-9)
